We go through 28 molecules from patent publication US20130303507A1 (Novartis AG, priority 2011, published 2013).

For the experiment, the target named is Cdk9/cyclinT1 (Homo sapiens, UniProt P50750). As to the kind of experiment: Cdk9/cyclinT1 IMAP protocol (fluorescence polarization). Particulars: IC-50, CDK9; lower limit of assay 0.0005 micromolar. A general note: Fluorescence polarisation rises when a labelled molecule tumbles more slowly, as on binding a larger partner.

The structures appear in SMILES notation. Bounds are passed on as bounds.

Sequence of Cdk9/cyclinT1 (P50750 whole entry): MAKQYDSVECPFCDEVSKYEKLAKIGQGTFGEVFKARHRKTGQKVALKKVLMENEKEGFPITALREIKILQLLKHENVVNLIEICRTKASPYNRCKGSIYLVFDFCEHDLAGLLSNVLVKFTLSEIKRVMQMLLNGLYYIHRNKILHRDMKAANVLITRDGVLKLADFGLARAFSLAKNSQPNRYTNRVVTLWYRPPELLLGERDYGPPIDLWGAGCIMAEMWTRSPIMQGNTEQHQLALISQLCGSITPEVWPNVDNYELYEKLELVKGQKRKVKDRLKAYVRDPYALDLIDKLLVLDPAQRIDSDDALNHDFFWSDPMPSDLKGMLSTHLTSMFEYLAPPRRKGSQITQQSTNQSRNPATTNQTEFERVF
Sequence of Cdk9/cyclinT1 (O60563 whole entry partner): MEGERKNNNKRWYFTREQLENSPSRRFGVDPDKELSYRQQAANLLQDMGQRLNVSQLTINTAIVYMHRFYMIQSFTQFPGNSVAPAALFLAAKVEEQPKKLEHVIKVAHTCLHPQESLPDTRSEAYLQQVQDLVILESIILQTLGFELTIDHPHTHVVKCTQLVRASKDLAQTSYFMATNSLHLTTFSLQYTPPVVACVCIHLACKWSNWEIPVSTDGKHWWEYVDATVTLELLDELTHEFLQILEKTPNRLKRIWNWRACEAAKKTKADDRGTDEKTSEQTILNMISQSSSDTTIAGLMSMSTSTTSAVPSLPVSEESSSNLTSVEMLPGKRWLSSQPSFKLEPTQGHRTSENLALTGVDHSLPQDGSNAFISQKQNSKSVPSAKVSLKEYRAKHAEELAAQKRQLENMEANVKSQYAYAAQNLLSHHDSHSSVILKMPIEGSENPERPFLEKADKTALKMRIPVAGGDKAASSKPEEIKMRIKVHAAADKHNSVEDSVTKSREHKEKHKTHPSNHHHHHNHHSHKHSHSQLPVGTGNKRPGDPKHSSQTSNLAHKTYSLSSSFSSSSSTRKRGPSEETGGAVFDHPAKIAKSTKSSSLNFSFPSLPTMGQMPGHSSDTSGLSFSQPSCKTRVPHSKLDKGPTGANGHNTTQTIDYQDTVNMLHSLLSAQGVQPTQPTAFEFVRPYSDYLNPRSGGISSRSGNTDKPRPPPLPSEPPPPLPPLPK

Broadly, the IC50 is the concentration that inhibits the measured activity by half. Low values mean inhibition by little substance, high ones a need for much substance. In turn, `CCOC(=O)C(C)(C)N[C@H]1CC[C@H](Nc2cc(-c3cccc(NCC4(C#N)CCOCC4)n3)c(Cl)cn2)CC1` [Compound 452, ethyl 2-((trans-4-((5′-chloro-6-(((4-cyanotetrahydro-2H-pyran-4-yl)methyl)amino)-[2,4′-bipyridin]-2′-yl)amino)cyclohexyl)amino)-2-methylpropanoate] had a half-inhibitory concentration (IC50) of 0.7 nM. This counts as sub-nanomolar. For `N#CC1(CNc2cccc(-c3cc(N[C@H]4CC[C@H](CN)CC4)ncc3Cl)n2)CCOCC1` [Compound 493, 4-(((2′-((trans-4-(aminomethyl)cyclohexyl)amino)-5′-chloro-[2,4′-bipyridin]-6-yl)amino)methyl)tetrahydro-2H-pyran-4-carbonitrile], the IC50 was < 0.5 nM. With `CO[C@H]1CCN([C@H]2CC[C@H](Nc3cc(-c4cccc(NCC5(C#N)CCOCC5)n4)c(Cl)cn3)CC2)C1` [Compound 475, 4-(((5′-chloro-2′-((trans-4-((S)-3-methoxypyrrolidin-1-yl)cyclohexyl)amino)-[2,4′-bipyridin]-6-yl)amino)methyl)tetrahydro-2H-pyran-4-carbonitrile], half-maximal inhibition (IC50) was put at 0.6 nM. Regarding `COCCN[C@H]1CC[C@H](Nc2cc(-c3cccc(NCC4(C#N)CC4)n3)c(F)cn2)CC1` [Compound 488, 1-(((5′-fluoro-2′-((trans-4-((2-methoxyethyl)amino)cyclohexyl)amino)-[2,4′-bipyridin]-6-yl)amino)methyl)cyclopropane-carbonitrile], the IC50 is < 0.5 nM. `N#CC1(CNc2cccc(-c3cc(N[C@H]4CC[C@H](CNc5nc6ccccc6o5)CC4)ncc3Cl)n2)CCOCC1` [Compound 504, 4-(((2′-((trans-4-((benzo[d]oxazol-2-ylamino)methyl)cyclohexyl)amino)-5′-chloro-[2,4′-bipyridin]-6-yl)amino)methyl)tetrahydro-2H-pyran-4-carbonitrile] displayed an IC50 of 1 nM. For `CO[C@@H]1C[C@@H](Nc2cc(-c3cccc(NCC4(C#N)CCOCC4)n3)c(Cl)cn2)CC[C@@H]1N` (single isomer, unassigned) [Compound 435], the concentration for half-maximal inhibition (IC50) is ≤ 0.5 nM. For the molecule `N#CC1(CNc2cccc(-c3cc(N[C@H]4CC[C@H](N5CCOCC5)CC4)ncc3Cl)n2)CCOCC1` [Compound 442, 4-(((5′-chloro-2′-((trans-4-morpholinocyclohexyl)amino)-[2,4′-bipyridin]-6-yl)amino)methyl)tetrahydro-2H-pyran-4-carbonitrile], the IC50 is 0.6 nM. Molecule `CO[C@H]1C[C@@H](Nc2cc(-c3cccc(NCC4(C#N)CCOCC4)n3)c(Cl)cn2)CC[C@@H]1N` [Compound 439, 4-(((2′-(((1S,3S,4S)-4-amino-3-methoxycyclohexyl)amino)-5′-chloro-[2,4′-bipyridin]-6-yl)amino)methyl)tetrahydro-2H-pyran-4-carbonitrile] came in with an IC50 of 10 nM.

On to `N#CC1(CNc2cccc(-c3cc(N[C@H]4CC[C@H](CNS(=O)(=O)c5ccccc5)CC4)ncc3Cl)n2)CCOCC1` [Compound 496, N-((trans-4-((5′-chloro-6-(((4-cyanotetrahydro-2H-pyran-4-yl)methyl)amino)-[2,4′-bipyridin]-2′-yl)amino)cyclohexyl)methyl) benzenesulfonamide], for which the IC50 was < 0.5 nM. To `N#CC1(CNc2cccc(-c3cc(NC4CCOCC4)ncc3Cl)n2)CCOCC1` [Compound 443, 4-(((5′-chloro-2′-((tetrahydro-2H-pyran-4-yl)amino)-[2,4′-bipyridin]-6-yl)amino)methyl)tetrahydro-2H-pyran-4-carbonitrile] belongs 1.7 nM; to `N#CC1(CNc2cccc(-c3cc(NCC4CCOCC4)ncc3Cl)n2)CCOCC1` [Compound 441, 4-(((5′-chloro-2′-(((tetrahydro-2H-pyran-4-yl)methyl)amino)-[2,4′-bipyridin]-6-yl)amino)methyl)tetrahydro-2H-pyran-4-carbonitrile], 3 nM. In the case of `N#CC1(CNc2cccc(-c3cc(N[C@H]4CC[C@H](NC[C@@H]5CCCO5)CC4)ncc3F)n2)CCOCC1` [Compound 483, 4-(((5′-fluoro-2′-((trans-4-((((S)-tetrahydrofuran-2-yl)methyl)amino)cyclohexyl)amino)-[2,4′-bipyridin]-6-yl)amino)methyl)tetrahydro-2H-pyran-4-carbonitrile], the IC50 is < 0.5 nM. In the case of `N#CC1(CNc2cccc(-c3cc(N[C@H]4CC[C@H](N)CC4)ncc3F)n2)CC1` [Compound 486, 1-(((2′-((trans-4-aminocyclohexyl)amino)-5′-fluoro-[2,4′-bipyridin]-6-yl)amino)methyl)cyclopropane-carbonitrile] it was < 0.5 nM; in that of `COC[C@@H](C)N[C@H]1CC[C@H](Nc2cc(-c3cccc(NCC4(C#N)CC4)n3)c(Cl)cn2)CC1` [Cmpd 400, 1-(((5′-chloro-2′-((trans-4-(((R)-1-methoxypropan-2-yl)amino)cyclohexyl)amino)-[2,4′-bipyridin]-6-yl)amino)methyl)cyclopropane-carbonitrile], < 0.5 nM; in that of `N#CC1(CNc2cccc(-c3cc(N[C@H]4CC[C@H](CNc5cc(Cl)ncn5)CC4)ncc3Cl)n2)CCOCC1` [Compound 505, 4-(((5′-chloro-2′-((trans-4-(((6-chloropyrimidin-4-yl)amino)methyl)cyclohexyl)amino)-[2,4′-bipyridin]-6-yl)amino)methyl)tetrahydro-2H-pyran-4-carbonitrile], ≤ 0.5 nM. In the case of `COC(=O)NC[C@H]1CC[C@H](Nc2cc(-c3cccc(NCC4(C#N)CCOCC4)n3)c(Cl)cn2)CC1` [Compound 497, methyl ((trans-4-((5′-chloro-6-(((4-cyanotetrahydro-2H-pyran-4-yl)methyl)amino)-[2,4′-bipyridin]-2′-yl)amino)cyclohexyl)methyl) carbamate] it was < 0.5 nM; in that of `COC[C@H](C)N[C@H]1CC[C@H](Nc2cc(-c3cccc(NCC4(O)CCOCC4)n3)c(Cl)cn2)CC1` [Compound 451, 4-(((5′-chloro-2′-((trans-4-(((S)-1-methoxypropan-2-yl)amino)cyclohexyl)amino)-[2,4′-bipyridin]-6-yl)amino)methyl)tetrahydro-2H-pyran-4-ol], 7 nM; in that of `N#CC1(CNc2cccc(-c3cc(N[C@H]4CC[C@H](NCCF)CC4)ncc3Cl)n2)CCOCC1` [Compound 424, 4-(((5′-chloro-2′-((trans-4-((2-fluoroethyl)amino)cyclohexyl)amino)-[2,4′-bipyridin]-6-yl)amino)methyl)tetrahydro-2H-pyran-4-carbonitrile], < 0.5 nM. To `COCCN[C@H]1CC[C@H](Nc2cc(-c3cccc(NCC4(C#N)CCOCC4)n3)c(F)cn2)CC1` [Compound 474, 4-(((5′-fluoro-2′-((trans-4-((2-methoxyethyl)amino)cyclohexyl)amino)-[2,4′-bipyridin]-6-yl)amino)methyl)tetrahydro-2H-pyran-4-carbonitrile] belongs < 0.5 nM; to `N#CC1(CNc2cccc(-c3cc(N[C@H]4CC[C@@H](O)C4)ncc3Cl)n2)CCOCC1` (relative stereo) [Example 404], < 0.5 nM. For `N#CC1(CNc2cccc(-c3cc(N[C@H]4CC[C@H](N)CC4)ncc3Cl)n2)CCOCC1` [Compound 464, 4-(((2′-((trans-4-aminocyclohexyl)amino)-5′-chloro-[2,4′-bipyridin]-6-yl)amino)methyl)tetrahydro-2H-pyran-4-carbonitrile], the half-maximal inhibitory concentration (IC50) was < 0.5 nM.

As for `COC[C@H](C)N[C@H]1CC[C@H](Nc2cc(-c3cccc(NCC4(C#N)CCOCC4)n3)c(Cl)cn2)CC1` [Compound 459, 4-(((5′-chloro-2′-((trans-4-(((S)-1-methoxypropan-2-yl)amino)cyclohexyl)amino)-[2,4′-bipyridin]-6-yl)amino)methyl)tetrahydro-2H-pyran-4-carbonitrile], the IC50 was ≤ 0.5 nM. To `COC[C@]1(O)CC[C@H](Nc2cc(-c3cccc(NCC4(C#N)CCOCC4)n3)c(Cl)cn2)CC1` [Compound 449, 4-(((5′-chloro-2′-((trans-4-hydroxy-4-(methoxymethyl)cyclohexyl)amino)-[2,4′-bipyridin]-6-yl)amino)methyl)tetrahydro-2H-pyran-4-carbonitrile] belongs 5.5 nM; to `N#CC1(CNc2cccc(-c3cc(N[C@H]4CC[C@@H](N5CCNC(=O)C5)CC4)ncc3Cl)n2)CCOCC1` [Compound 418, 4-(((5′-chloro-2′-((cis-4-(3-oxopiperazin-1-yl)cyclohexyl)amino)-[2,4′-bipyridin]-6-yl)amino)methyl)tetrahydro-2H-pyran-4-carbonitrile], 8.5 nM. To `NC(=O)C1(CNc2cccc(-c3cc(N[C@H]4CC[C@H](N)CC4)ncc3F)n2)CC1` [Compound 487, 1-(((2′-((trans-4-aminocyclohexyl)amino)-5′-fluoro-[2,4′-bipyridin]-6-yl)amino)methyl)cyclopropane-carboxamide] belongs < 0.5 nM; to `N#CC1(CNc2cccc(-c3cc(N[C@@H]4CCCc5ccccc54)ncc3Cl)n2)CCOCC1` [Compound 500, (R)-4-(((5′-chloro-2′-((1,2,3,4-tetrahydronaphthalen-1-yl)amino)-[2,4′-bipyridin]-6-yl)amino)methyl)tetrahydro-2H-pyran-4-carbonitrile], 20 nM; to `COC[C@@H](C)N[C@H]1CC[C@H](Nc2cc(-c3cncc(NCC4(C#N)CCOCC4)n3)c(Cl)cn2)CC1` [Compound 507, 4-(((6-(5-chloro-2-((trans-4-(((R)-1-methoxypropan-2-yl)amino)cyclohexyl)amino)pyridin-4-yl)pyrazin-2-yl)amino)methyl)tetrahydro-2H-pyran-4-carbonitrile], < 0.5 nM. In the case of `COCC(C)(C)N[C@H]1CC[C@H](Nc2cc(-c3cccc(NCC4(C#N)CCOCC4)n3)c(Cl)cn2)CC1` [Compound 454, 4-(((5′-chloro-2′-((trans-4-((1-methoxy-2-methylpropan-2-yl)amino)cyclohexyl)amino)-[2,4′-bipyridin]-6-yl)amino)methyl)tetrahydro-2H-pyran-4-carbonitrile] it was 2 nM.
